{"source": "patent US20180280392A1", "about": "“PHARMACEUTICAL PREPARATION COMPRISING CYCLIN INHIBITOR AND PREPARATION METHOD THEREOF” (Jiangsu Hansoh Pharmaceutical Group Co., Ltd., priority 2014, published 2018)", "origin": "cited, not measured here", "test_system": "phosphorylation of retinoblastoma tumor suppressor (RB) in MDA-MB-435 breast cancer cells", "note": "Where two headings read alike, the source gives them in different places."}
{"smiles": "CC(=O)c1c(C)c2cnc(Nc3ccc(N4CCNCC4)cn3)nc2n(C2CCCC2)c1=O", "note": "[compound of formula I, 6-acetyl-8-cyclopentyl-5-methyl-2-(5-piperazin-1-yl-pyridin-2-yl-amino)-8H-pyrido[2,3-d]pyrimidin-7-one]", "values": [{"measurement": "IC50", "setting": "Ser780 site, read-out: IC50, reduction of phosphorylation of RB on Ser780", "value": 66, "unit": "nM"}, {"measurement": "IC50", "setting": "Ser795 site, read-out: IC50, reduction of phosphorylation of RB on Ser795", "value": 63, "unit": "nM"}]}
